From the NIST ThermoML archive (doi:10.1016/j.fluid.2008.03.012)

Assay: excess molar enthalpy (molar enthalpy of mixing); xn = mol fraction of the nth substance listed
Conditions: Liquid, Flow calorimetry

CCOC(=O)CC(C)=O [ethyl 3-oxobutanoate] + CCO
excess molar enthalpy [kJ/mol]
Conditions	298.15 K	313.15 K	328.15 K
100 kPa, x1 = 0.0999	0.744	0.847	0.907
100 kPa, x1 = 0.1997	1.2	1.36	1.5
100 kPa, x1 = 0.2994	1.49	1.68	1.86
100 kPa, x1 = 0.3495	1.59	1.8	1.98
100 kPa, x1 = 0.3999	1.66	1.88	2.06
100 kPa, x1 = 0.4501	1.7	1.91	2.1
100 kPa, x1 = 0.4995	1.71	1.92	2.1
100 kPa, x1 = 0.5492	1.69	1.9	2.07
100 kPa, x1 = 0.6008	1.65	1.84	1.99
100 kPa, x1 = 0.6501	1.58	1.75	1.88
100 kPa, x1 = 0.7008	1.48	1.62	1.74
100 kPa, x1 = 0.8006	1.15	1.24	1.31
100 kPa, x1 = 0.9002	0.657	0.703	0.712
10000 kPa, x1 = 0.0998	0.725	0.845	0.898
10000 kPa, x1 = 0.1995	1.17	1.36	1.47
10000 kPa, x1 = 0.2992	1.46	1.68	1.82
10000 kPa, x1 = 0.3493	1.55	1.8	1.94
10000 kPa, x1 = 0.3996	1.62	1.87	2.01
10000 kPa, x1 = 0.4498	1.66	1.9	2.05
10000 kPa, x1 = 0.4992	1.67	1.92	2.05
10000 kPa, x1 = 0.5489	1.66	1.89	2.01
10000 kPa, x1 = 0.6005	1.61	1.83	1.94
10000 kPa, x1 = 0.6499	1.54	1.75	1.83
10000 kPa, x1 = 0.7005	1.44	1.62	1.69
10000 kPa, x1 = 0.8004	1.12	1.24	1.26
10000 kPa, x1 = 0.9001	0.629	0.699	0.701
